Where two headings read alike, the source gives them in different places.
Assay: Ovine plasma pharmacokinetics of PTH 1-34 (four-way randomised cross-over, ELISA)
Type: in vivo
Conditions: sheep; for half-life: read-out: t1/2 (mean); for bioavailability: relative to intravenous injection, read-out: Fab
Protocol: Research was conducted in accordance with the requirements of the Animals (Scientific Procedures) Act 1986 (ASPA) under Procedural Project Licence (PPL) number 40/3552 (Protocol 19b/1), between 26 April 2016 and 24 May 2016, at the University of Nottingham, Nottingham, UK (Procedural Establishment Licence (PEL) number PCD 40/2406). The overarching protocol (as detailed in the PPL) was subject to full review by the Animal Welfare and Ethical Review Board (AWERB), and the study-specific protocol received a more localised review by the Named Animal Care and Welfare Officer (NACWO) and Named Veterinary Surgeon (NVS). This research governance is compliant with recommended ethical review processes. In view of the clinical data obtained in the present study, the pharmacokinetics of the Solutol® HS15-based formulation of PTH 1-34 were further investigated in sheep. The sheep study replicated the clinical trial in that it tested the nasal solution formulation of PTH 1-34 as well as a subcutaneous injection, but also evaluated pharmacokinetics of PTH 1-34 following intravenous injection and an intranasal PTH1-34 dry powder formulation.
The study was conducted according to a four-way randomised cross-over study in four (Mule crossbred) female sheep (obtained from a reputable commercial supplier). The sheep were group housed in a heat and ventilation air conditioned (HVAC) facility for the duration of the study, and were uniquely identified by a combination of ear tag and electronic transponder. On arrival, the animals were also randomly assigned a unique identifier by the facilities Research Animal Facility Management system (LabTracks, Locus Technology Inc., Manchester, MD, USA) and an abbreviated study number (1, 2, 3 and 4). To aid identification during the study, the fleece of each animal was marked with the abbreviated study number by spraying with a commercial stockmarker (dye). The animals were acclimatised for 17 days prior to initiation of treatments. The animals were subject to a health inspection by the NVS prior to and after use in the study, and were monitored during the study by the PPL holder and facility personnel supported by the NACWO, NVS and University of Nottingham personnel. Animals were weighed weekly during the study (Supplementary Materials: Section S3).
Administration of the PTH 1-34 was either as an intranasal liquid, intranasal dry powder, subcutaneous injection or intravenous injection. The treatments were randomised according to a Latin Square design using an online randomisation programme (Experimental Design Generator and Randomiser (Edgar) accessed from: http://www.edgarweb.org.uk/) with a minimum of a two day washout period between study legs. Immediately prior to dosing, the four sheep were sedated by an intravenous injection of ketamine hydrochloride (100 mg/mL solution administered at 2.25 mg/kg). This provided approximately 3 min sedation, during which period the sheep were dosed.
The formulations were prepared at Critical Pharmaceuticals’ Laboratories and transported, refrigerated, to the study facility. The intranasal liquid was administered via the right nostril using a LMA™ MAD110 Nasal™ Intranasal mucosal atomization device (MAD110) (Wolfe-Tory Medical, Inc., Salt Lake City, UT, USA) customised for use in sheep (to allow circumvention of the nostril and delivery of the dose to the respiratory mucosa of the nasal cavity). The intranasal powder formulation was also administered via the right nostril using a 5 mm oral/nasal tracheal tube Portex® Blueline 100/111/050, (Smiths Medical, Ashford, UK) and one-way bellows. The amount of powder administered to each animal, and thus the nominal dose of PTH 1-34, was determined by weighing the devices before and after the nasal administrations. The subcutaneous and intravenous bolus injections of PTH 1-34 were administered into the flank and a jugular vein, respectively. […]

[1] = female, Mule crossbred, 20 ug, four-way crossover, intravenous bolus (jugular vein), solution without Solutol HS15, 20 μg, plasma ELISA, mean ± SE, n = 4
[2] = female, Mule crossbred, inhaled or intranasal, 200 ug, four-way crossover, intranasal liquid with 7.5% w/v Solutol HS15, 200 μg, single nostril, plasma ELISA, mean ± SE, n = 4
[3] = female, Mule crossbred, inhaled or intranasal, 200 ug, four-way crossover, intranasal liquid with 7.5% w/v Solutol HS15, 200 μg, single nostril, plasma ELISA, mean ± SE, n = 4, not dose-corrected
[4] = female, Mule crossbred, inhaled or intranasal, four-way crossover, intranasal dry powder (1% PTH 1-34, 39% gellan gum, 40% Solutol HS15, 20% trehalose), nominal 200 μg (estimated 130 ± 15 μg), plasma ELISA, mean ± SE, n = 4
[5] = female, Mule crossbred, sc, 20 ug, four-way crossover, subcutaneous injection into flank, solution without Solutol HS15, 20 μg, plasma ELISA, mean ± SE, n = 3
[6] = four-way crossover, intranasal dry powder with Solutol HS15 and gellan gum, nominal 200 μg (estimated 130 ± 15 μg), plasma ELISA, n = 4
[7] = four-way crossover, intranasal liquid with 7.5% w/v Solutol HS15, 200 μg, single nostril, plasma ELISA, n = 4
[8] = four-way crossover, intravenous bolus (jugular vein), solution without Solutol HS15, 20 μg, plasma ELISA, n = 4
[9] = four-way crossover, subcutaneous injection into flank, solution without Solutol HS15, 20 μg, plasma ELISA, n = 3

## CC[C@H](C)[C@H](NC(=O)[C@H](CCC(=O)O)NC(=O)[C@H](CO)NC(=O)[C@@H](NC(=O)[C@@H](N)CO)C(C)C)C(=O)N[C@@H](CCC(N)=O)C(=O)N[C@@H](CC(C)C)C(=O)N[C@@H](CCSC)C(=O)N[C@@H](Cc1cnc[nH]1)C(=O)N[C@@H](CC(N)=O)C(=O)N[C@@H](CC(C)C)C(=O)NCC(=O)N[C@@H](CCCCN)C(=O)N[C@@H](Cc1cnc[nH]1)C(=O)N[C@@H](CC(C)C)C(=O)N[C@@H](CC(N)=O)C(=O)N[C@@H](CO)C(=O)N[C@@H](CCSC)C(=O)N[C@@H](CCC(=O)O)C(=O)N[C@@H](CCCN=C(N)N)C(=O)N[C@H](C(=O)N[C@@H](CCC(=O)O)C(=O)N[C@@H](Cc1c[nH]c2ccccc12)C(=O)N[C@@H](CC(C)C)C(=O)N[C@@H](CCCN=C(N)N)C(=O)N[C@@H](CCCCN)C(=O)N[C@@H](CCCCN)C(=O)N[C@@H](CC(C)C)C(=O)N[C@@H](CCC(N)=O)C(=O)N[C@@H](CC(=O)O)C(=O)N[C@H](C(=O)N[C@@H](Cc1cnc[nH]1)C(=O)N[C@@H](CC(N)=O)C(=O)N[C@@H](Cc1ccccc1)C(=O)O)C(C)C)C(C)C [PTH 1-34, PTH 1-34 acetate]
[1]
  AUC(0-inf): 0.18 ng·h/mL
  AUC(0-t): 0.178 ng·h/mL
  Tmax: 2 min
  half-life: 75 ± 18.1 min
female, Mule crossbred, 20 ug, four-way crossover, intravenous bolus (jugular vein), solution without Solutol HS15, 20 μg, plasma ELISA, observed, mean ± SE, n = 4
  Cmax: 1.14 ± 0.198 ng/mL
[2]
  Cmax: 0.047 ± 0.021 ng/mL
  Tmax: 10 min
  half-life: 109 ± 43.7 min
[3]
  AUC(0-inf): 0.0204 ng·h/mL
  AUC(0-t): 0.0182 ng·h/mL
[4]
  Cmax: 0.008 ± 0.003 ng/mL
  Tmax: 11 min
female, Mule crossbred, inhaled or intranasal, four-way crossover, intranasal dry powder with Solutol HS15 and gellan gum, nominal 200 μg (estimated 130 ± 15 μg), plasma ELISA, mean ± SE, n = 4
  half-life: 96 ± 29.8 min
female, Mule crossbred, plasma, 20 ug, intravenous bolus 20 μg, back-extrapolated from the first two concentration values, mean ± SE, read-out: C0 (initial plasma concentration, extrapolation to t = 0)
  C0: 2.18 ± 0.696 ng/mL
female, Mule crossbred, plasma, inhaled or intranasal, 200 ug, intranasal liquid with 7.5% w/v Solutol HS15, 200 μg, relative to subcutaneous injection, from AUCINF, dose-corrected, mean ± SE, n = 4, read-out: Frel
  F rel: 1.4 ± 0.31%
female, Mule crossbred, plasma, inhaled or intranasal, 200 μg, intranasal dry powder with Solutol HS15 and gellan gum, from AUCINF, corrected with estimated dose, mean ± SE, n = 4
  bioavailability: 0.7 ± 0.03%
female, Mule crossbred, plasma, inhaled or intranasal, 200 μg, intranasal dry powder with Solutol HS15 and gellan gum, relative to subcutaneous injection, from AUCINF, corrected with estimated dose, mean ± SE, n = 4, read-out: Frel
  F rel: 1 ± 0.12%
female, Mule crossbred, plasma, inhaled or intranasal, 200 ug, intranasal liquid with 7.5% w/v Solutol HS15, 200 μg, from AUCINF, dose-corrected, mean ± SE, n = 4
  bioavailability: 1.1 ± 0.26%
female, Mule crossbred, plasma, iv, 20 ug, intravenous bolus 20 μg, relative to subcutaneous injection, calculated for n = 3, read-out: Frel, n = 3
  F rel: 140%
female, Mule crossbred, plasma, iv, 20 ug, intravenous bolus 20 μg, relative to subcutaneous injection, from AUCINF, mean ± SE, n = 4 (average subcutaneous AUCINF used for Sheep 1), read-out: Frel
  F rel: 156 ± 24%
female, Mule crossbred, plasma, sc, 20 ug, subcutaneous injection into flank, 20 μg, from AUCINF, mean ± SE, n = 3
  bioavailability: 77 ± 13.7%
[5]
  AUC(0-inf): 0.124 ng·h/mL
  AUC(0-t): 0.12 ng·h/mL
  Cmax: 0.121 ± 0.047 ng/mL
  Tmax: 12 min
  half-life: 54 ± 8.7 min
[6]
  Tmax (median): 8 min
  t1/2 (median): 71 min
[7]
  Tmax (median): 10 min
  t1/2 (median): 77 min
four-way crossover, intravenous bolus (jugular vein), solution without Solutol HS15, 20 μg, plasma ELISA, mean ± SE, n = 4
  Tmax (mean): 2 min
[8]
  Tmax (median): 2 min
  t1/2 (median): 78 min
[9]
  Tmax (median): 10 min
  t1/2 (median): 47 min
Intranasal liquid with 7.5% w/v Solutol HS15, 200 μg, relative to subcutaneous injection, from AUCINF, dose-corrected, mean ± SE, n = 4
  Frel: 1.4 ± 0.3%
Intranasal liquid with Solutol HS15, 200 μg, post-dose
  time by which concentrations had returned to near baseline values: ≤ 30 min
Intravenous bolus 20 μg
  time of return to near baseline: 30 to 45 min
Subcutaneous injection 20 μg, relative to intravenous, range
  Fab range: 55–108%

Source: article PMC6631119, “Nasal Administration and Plasma Pharmacokinetics of Parathyroid Hormone Peptide PTH 1-34 for the Treatment of Osteoporosis” (Pharmaceutics, 2019)
